# According to ChEMBL document CHEMBL5291721, “A preclinical secondary pharmacology resource illuminates target-adverse drug reaction associations of marketed drugs” (Nat Commun, 2023):
# Where “and” joins values, the source holds several entries; their conditions need not be identical. Equal values may be shown once.
# Key:
# [1] = target: T1, 5-hydroxytryptamine receptor 3A (Homo sapiens, UniProt P46098); type: functional
# T1 sequence (P46098 whole entry): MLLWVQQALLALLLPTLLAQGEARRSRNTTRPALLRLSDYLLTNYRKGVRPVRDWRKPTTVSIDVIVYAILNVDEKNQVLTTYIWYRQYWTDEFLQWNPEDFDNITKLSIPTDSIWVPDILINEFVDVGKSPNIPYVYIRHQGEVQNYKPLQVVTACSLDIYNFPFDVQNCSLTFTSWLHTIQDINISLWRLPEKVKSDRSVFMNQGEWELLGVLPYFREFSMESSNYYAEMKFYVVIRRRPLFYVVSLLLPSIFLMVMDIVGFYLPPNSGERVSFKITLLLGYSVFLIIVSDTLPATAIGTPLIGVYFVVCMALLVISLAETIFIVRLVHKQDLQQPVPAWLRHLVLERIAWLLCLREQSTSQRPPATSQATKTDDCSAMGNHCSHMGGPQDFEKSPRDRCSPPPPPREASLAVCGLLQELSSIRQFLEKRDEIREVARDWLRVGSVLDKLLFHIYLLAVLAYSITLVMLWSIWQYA
# [2] = target: T2, 5-hydroxytryptamine receptor 1A (Homo sapiens, UniProt P08908); type: functional, cell-based
# T2 sequence (P08908 whole entry): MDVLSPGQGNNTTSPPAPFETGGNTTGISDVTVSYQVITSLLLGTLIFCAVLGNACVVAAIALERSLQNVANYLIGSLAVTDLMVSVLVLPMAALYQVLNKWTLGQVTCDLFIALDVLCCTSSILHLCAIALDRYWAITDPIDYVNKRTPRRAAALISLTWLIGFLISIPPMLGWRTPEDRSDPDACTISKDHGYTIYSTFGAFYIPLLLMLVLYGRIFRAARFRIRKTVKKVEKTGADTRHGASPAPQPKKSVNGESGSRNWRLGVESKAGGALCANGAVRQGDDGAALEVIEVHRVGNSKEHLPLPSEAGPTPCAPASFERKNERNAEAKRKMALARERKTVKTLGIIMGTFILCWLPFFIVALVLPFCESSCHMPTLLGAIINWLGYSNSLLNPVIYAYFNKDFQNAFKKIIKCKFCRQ
# [3] = target: Sodium-dependent dopamine transporter (Homo sapiens, UniProt Q01959)
# Sodium-dependent dopamine transporter, sequence (Q01959 whole entry): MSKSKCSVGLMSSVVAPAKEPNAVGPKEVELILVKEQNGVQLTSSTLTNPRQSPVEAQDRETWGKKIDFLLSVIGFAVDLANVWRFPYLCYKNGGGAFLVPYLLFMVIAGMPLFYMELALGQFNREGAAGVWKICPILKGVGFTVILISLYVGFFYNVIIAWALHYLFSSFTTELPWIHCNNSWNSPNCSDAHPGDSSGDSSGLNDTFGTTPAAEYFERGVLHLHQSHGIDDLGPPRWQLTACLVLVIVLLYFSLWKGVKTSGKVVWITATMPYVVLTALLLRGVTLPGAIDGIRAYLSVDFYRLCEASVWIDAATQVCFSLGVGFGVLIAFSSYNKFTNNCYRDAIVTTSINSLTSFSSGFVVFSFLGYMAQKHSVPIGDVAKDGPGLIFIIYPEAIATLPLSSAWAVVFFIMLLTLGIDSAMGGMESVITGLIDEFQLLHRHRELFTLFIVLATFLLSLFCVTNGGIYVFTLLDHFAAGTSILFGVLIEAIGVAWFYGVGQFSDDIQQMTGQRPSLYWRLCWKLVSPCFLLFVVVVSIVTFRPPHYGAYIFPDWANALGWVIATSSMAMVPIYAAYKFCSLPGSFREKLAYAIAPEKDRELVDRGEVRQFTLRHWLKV
# [4] = target: Delta-type opioid receptor (Homo sapiens, UniProt P41143)
# Delta-type opioid receptor, sequence (P41143 whole entry): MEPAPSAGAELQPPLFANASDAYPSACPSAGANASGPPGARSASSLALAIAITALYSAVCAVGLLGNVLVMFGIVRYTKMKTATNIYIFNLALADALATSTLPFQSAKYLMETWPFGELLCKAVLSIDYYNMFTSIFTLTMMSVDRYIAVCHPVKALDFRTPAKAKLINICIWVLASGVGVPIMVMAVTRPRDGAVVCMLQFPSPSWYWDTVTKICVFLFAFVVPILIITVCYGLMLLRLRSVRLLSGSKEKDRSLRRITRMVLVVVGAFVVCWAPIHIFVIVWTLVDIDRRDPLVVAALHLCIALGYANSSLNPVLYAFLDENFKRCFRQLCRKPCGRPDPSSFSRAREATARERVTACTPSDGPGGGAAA
# [5] = target: T3, Type-1 angiotensin II receptor (Homo sapiens, UniProt P30556)
# T3 sequence (P30556 whole entry): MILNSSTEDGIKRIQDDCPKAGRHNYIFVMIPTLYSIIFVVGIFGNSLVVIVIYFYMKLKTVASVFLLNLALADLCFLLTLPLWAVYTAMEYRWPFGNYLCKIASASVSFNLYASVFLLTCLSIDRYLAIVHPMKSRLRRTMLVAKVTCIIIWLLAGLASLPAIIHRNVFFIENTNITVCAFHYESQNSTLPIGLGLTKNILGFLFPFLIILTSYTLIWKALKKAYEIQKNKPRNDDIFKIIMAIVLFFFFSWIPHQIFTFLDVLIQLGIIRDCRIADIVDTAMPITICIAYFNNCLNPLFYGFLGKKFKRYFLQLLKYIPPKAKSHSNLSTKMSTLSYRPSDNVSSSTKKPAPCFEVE
# [6] = target: Neuronal acetylcholine receptor subunit alpha-4 (Homo sapiens, UniProt P43681)
# Neuronal acetylcholine receptor subunit alpha-4, sequence (P43681 whole entry): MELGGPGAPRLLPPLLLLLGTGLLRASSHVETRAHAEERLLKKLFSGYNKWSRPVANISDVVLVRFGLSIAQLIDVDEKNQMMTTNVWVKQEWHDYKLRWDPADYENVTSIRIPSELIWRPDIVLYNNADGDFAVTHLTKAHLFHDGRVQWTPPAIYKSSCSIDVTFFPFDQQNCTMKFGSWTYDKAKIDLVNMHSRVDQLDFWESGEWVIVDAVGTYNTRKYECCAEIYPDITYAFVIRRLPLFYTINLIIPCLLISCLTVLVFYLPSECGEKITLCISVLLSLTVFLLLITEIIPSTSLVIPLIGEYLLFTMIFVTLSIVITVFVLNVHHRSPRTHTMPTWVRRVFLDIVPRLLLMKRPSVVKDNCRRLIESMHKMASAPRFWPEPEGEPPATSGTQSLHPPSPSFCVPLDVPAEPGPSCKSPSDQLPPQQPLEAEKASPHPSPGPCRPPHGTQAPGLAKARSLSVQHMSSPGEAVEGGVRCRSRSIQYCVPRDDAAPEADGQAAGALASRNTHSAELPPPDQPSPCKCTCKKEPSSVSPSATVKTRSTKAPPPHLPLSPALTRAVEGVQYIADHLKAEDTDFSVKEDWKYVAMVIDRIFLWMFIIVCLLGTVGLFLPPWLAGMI
# Adenosine receptor A3 = target: T4, Adenosine receptor A3 (Homo sapiens, UniProt P0DMS8)
# T4 sequence (P0DMS8 whole entry): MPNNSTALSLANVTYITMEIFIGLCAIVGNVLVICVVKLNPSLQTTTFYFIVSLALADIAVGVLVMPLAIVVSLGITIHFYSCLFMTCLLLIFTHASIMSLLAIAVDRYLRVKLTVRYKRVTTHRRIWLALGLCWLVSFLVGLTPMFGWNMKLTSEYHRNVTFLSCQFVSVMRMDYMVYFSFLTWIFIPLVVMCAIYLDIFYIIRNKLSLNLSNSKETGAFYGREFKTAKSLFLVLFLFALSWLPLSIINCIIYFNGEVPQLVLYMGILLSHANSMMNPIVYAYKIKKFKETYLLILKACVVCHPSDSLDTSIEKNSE
# [7] = target: T5, Muscarinic acetylcholine receptor M2 (Homo sapiens, UniProt P08172); type: functional, cell-based
# T5 sequence (P08172 whole entry): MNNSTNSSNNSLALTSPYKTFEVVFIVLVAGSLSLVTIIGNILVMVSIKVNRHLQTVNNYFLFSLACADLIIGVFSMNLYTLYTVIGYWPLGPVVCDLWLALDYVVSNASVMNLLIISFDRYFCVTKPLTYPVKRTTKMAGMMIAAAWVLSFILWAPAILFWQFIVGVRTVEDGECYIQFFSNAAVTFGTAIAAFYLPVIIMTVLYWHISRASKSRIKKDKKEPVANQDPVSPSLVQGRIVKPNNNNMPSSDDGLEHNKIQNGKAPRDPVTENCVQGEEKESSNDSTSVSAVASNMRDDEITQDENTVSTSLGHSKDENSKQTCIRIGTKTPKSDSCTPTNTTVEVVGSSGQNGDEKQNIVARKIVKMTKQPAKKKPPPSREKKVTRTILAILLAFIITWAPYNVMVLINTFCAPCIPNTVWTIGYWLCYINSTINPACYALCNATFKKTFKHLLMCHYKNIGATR
# Melanocortin receptor 3 = Melanocortin receptor 3 (Homo sapiens, UniProt P41968)
# Melanocortin receptor 3, sequence (P41968 whole entry): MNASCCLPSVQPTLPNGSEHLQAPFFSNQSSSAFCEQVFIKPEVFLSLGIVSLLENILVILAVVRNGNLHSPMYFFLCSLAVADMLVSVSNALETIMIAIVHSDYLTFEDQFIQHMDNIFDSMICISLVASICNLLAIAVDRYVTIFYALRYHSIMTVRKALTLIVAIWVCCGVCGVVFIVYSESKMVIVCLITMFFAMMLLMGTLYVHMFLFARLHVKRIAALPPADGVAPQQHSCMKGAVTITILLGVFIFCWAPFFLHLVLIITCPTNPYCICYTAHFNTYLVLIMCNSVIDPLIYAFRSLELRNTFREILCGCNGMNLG
# [8] = target: Growth hormone secretagogue receptor type 1 (Homo sapiens, UniProt Q92847)
# Growth hormone secretagogue receptor type 1, sequence (Q92847 whole entry): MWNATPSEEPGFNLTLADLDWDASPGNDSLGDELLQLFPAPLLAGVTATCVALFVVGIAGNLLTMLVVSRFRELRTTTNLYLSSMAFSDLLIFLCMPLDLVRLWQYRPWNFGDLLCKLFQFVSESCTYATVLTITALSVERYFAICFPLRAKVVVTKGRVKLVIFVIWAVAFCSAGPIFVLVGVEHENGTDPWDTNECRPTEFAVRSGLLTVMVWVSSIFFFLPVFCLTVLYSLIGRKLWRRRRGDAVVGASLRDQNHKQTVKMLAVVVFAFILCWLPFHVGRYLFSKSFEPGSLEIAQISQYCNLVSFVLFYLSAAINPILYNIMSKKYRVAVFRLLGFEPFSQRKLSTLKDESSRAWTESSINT
# [9] = target: T6, Alpha-2A adrenergic receptor (Homo sapiens, UniProt P08913); type: functional, cell-based
# T6 sequence (P08913 whole entry): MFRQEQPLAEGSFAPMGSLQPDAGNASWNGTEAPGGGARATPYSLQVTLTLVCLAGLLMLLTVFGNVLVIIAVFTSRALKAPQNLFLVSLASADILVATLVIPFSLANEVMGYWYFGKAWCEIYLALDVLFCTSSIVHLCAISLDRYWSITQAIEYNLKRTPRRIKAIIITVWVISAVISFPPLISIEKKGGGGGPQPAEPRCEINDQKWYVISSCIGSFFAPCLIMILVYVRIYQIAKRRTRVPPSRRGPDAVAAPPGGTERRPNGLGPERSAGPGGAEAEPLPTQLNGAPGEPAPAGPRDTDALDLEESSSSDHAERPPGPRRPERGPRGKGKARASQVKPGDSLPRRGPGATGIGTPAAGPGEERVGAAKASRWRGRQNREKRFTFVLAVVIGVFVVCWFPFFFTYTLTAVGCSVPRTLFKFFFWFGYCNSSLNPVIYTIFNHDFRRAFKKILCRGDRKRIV
# Adenosine receptor A2a = Adenosine receptor A2a (Homo sapiens, UniProt P29274)
# Adenosine receptor A2a, sequence (P29274 whole entry): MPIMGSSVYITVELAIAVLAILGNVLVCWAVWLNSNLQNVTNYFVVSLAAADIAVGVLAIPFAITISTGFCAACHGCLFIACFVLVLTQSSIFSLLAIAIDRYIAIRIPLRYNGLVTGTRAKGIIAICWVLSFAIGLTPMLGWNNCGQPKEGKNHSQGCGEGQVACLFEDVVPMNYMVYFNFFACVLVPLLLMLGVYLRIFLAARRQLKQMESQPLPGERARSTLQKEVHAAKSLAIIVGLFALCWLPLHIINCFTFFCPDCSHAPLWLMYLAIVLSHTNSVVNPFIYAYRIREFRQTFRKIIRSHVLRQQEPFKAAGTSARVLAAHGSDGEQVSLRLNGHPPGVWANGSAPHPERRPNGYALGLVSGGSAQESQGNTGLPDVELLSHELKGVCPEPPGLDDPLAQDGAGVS
# Note: assay procedure not described here.
Structure (SMILES),AC50 [1] [µM],AC50 [2] [µM],AC50 [3],AC50 [4] [µM],AC50 [5] [µM],AC50 [6] [µM],AC50 (Adenosine receptor A3),AC50 [7] [µM],AC50 (Melanocortin receptor 3) [µM],AC50 [8] [µM],AC50 [9] [µM],AC50 (Adenosine receptor A2a) [µM]
CC(CCc1ccc(O)cc1)NCCc1ccc(O)c(O)c1 (stereo not drawn) [DOBUTAMINE],27,> 30,0.897 µM,> 30,> 30,> 30,22.9 µM,> 30,> 30,> 30,> 30,> 30
C[C@]12CC[C@@H]3c4ccc(O)cc4C[C@@H](CCCCCCCCC[S+]([O-])CCCC(F)(F)C(F)(F)F)[C@H]3[C@@H]1CC[C@@H]2O (stereo partly drawn) [FULVESTRANT],> 30,> 30,> 30 µM,> 30,> 30,> 30,> 30 µM,> 30,> 30,> 30,> 30,> 30
CC1OC2(CS1)CN1CCC2CC1 (stereo not drawn) [CEVIMELINE],> 30,> 10,> 10 µM,> 30,> 10,> 10,> 10 µM,3.03,> 10,> 10,> 10,> 10
Oc1ccc2c(c1)CC[C@H](c1ccccc1)[C@@H]2c1ccc(OCCN2CCCC2)cc1 [LASOFOXIFENE],> 30,> 30,0.117 µM,7.2,> 30,> 30,5.8 µM,15,11,5.2,10,> 30
C[C@H](Cc1ccc(O)c(O)c1)[C@@H](C)Cc1ccc(O)c(O)c1 [MASOPROCOL],> 30,> 10,3.4 µM and 5.4 µM and 5.2 µM,> 30,> 10,> 30,5.4 µM and 4.7 µM and 4.1 µM,> 30,> 30,> 10,> 10,> 30
C[C@]12CCC(=O)C(O)=C1CC[C@@H]1[C@@H]2CC[C@]2(C)C(=O)CC[C@@H]12 [FORMESTANE],> 30,> 30,> 30 µM,> 30,> 30,> 30,> 30 µM,> 30,> 30,> 30,> 30,> 30
CCC(=O)O[C@]1(C(=O)SCF)[C@H](C)C[C@H]2[C@@H]3C[C@H](F)C4=CC(=O)C=C[C@]4(C)[C@@]3(F)[C@@H](O)C[C@@]21C [FLUTICASONE PROPIONATE],> 30,> 30,> 30 µM,> 30,> 30,> 30,> 30 µM,> 30,> 30,> 30,> 30,> 30
CC(C)(C)C(=O)OCC(=O)[C@H]1CC[C@H]2[C@@H]3CCC4=CC(=O)CC[C@]4(C)[C@H]3CC[C@]12C [DESOXYCORTICOSTERONE PIVALATE],> 30,> 10,> 10 µM,> 30,> 10,> 10,> 10 µM,> 10,> 10,> 10,> 10,> 10
[H]/N=C(/N)N/C(=N/[H])NCCc1ccccc1 [PHENFORMIN],> 30,> 30,25.2 µM,> 30,> 30,> 10,> 30 µM,> 10,> 30,> 30,> 10,> 30
Cc1noc(NS(=O)(=O)c2ccc(N)cc2)c1C [SULFISOXAZOLE],> 30,> 10,> 10 µM,> 30,> 10,> 10,> 10 µM,> 10,> 10,> 10,> 10,> 10
Cc1cc2cc3c(C)cc(=O)oc3c(C)c2o1 [TRIOXSALEN],> 30,> 10,> 10 µM,> 30,> 10,> 10,> 30 µM,> 10,> 10,> 10,> 10,6.7
C=CCNc1nc(NCC=C)nc(N2CCN(C(c3ccc(F)cc3)c3ccc(F)cc3)CC2)n1 [ALMITRINE],> 30,> 30,> 30 µM,> 30,> 30,> 30,> 30 µM,> 30,> 30,> 30,> 30,> 30
C/N=C(\NC)NCc1ccccc1 [BETHANIDINE],> 30,> 30,> 30 µM,> 30,> 30,> 30,> 30 µM,> 30,> 30,> 30,> 30,> 30
CC(C)[C@H](N)C(=O)OCC(CO)OCn1cnc2c(=O)nc(N)[nH]c21 (stereo partly drawn) [VALGANCICLOVIR],> 30,> 30,> 30 µM,> 30,> 30,> 30,> 30 µM,> 30,> 30,> 30,> 30,> 30
